Reference: patent US20140073634A1 (Institute For Applied Cancer Science/The University of …, priority 2012, published 2014)

Key:
NB-1 xenografts = assay: NB-1 xenograft model; type: in vivo, CD-1 nude mice; conditions: 40 mg/kg daily oral
Description: To establish activity and provide in vivo proof of concept, NB-1 cells were implanted into CD-1 nude mice and treated with vehicle or 40 mpk of the compound of Example 7 po daily hen tumors reached 400-500 mm^3. Tumor size was measure 3×/week using caliper measurements (FIG. 4).

H460 xenografts = assay: H460 non-small cell lung cancer xenograft; type: in vivo, CD-1 nude mice
Method: Non-Small Cell Lung Cancer: H460 cells were implanted subcutaneously in CD-1 nude mice and treated with the compound of Example 7 (40 mpk qdx 14) delivered by oral gavage for 14 days. Animals were randomized into study groups and the study initiated when the average tumor volume was 400 mm^3. During treatment, tumor volume was measured three times per week to determine tumor growth over the course of the study (FIG. 5). Nine tumor bearing mice were included in each group. On day 15, 3 hours prior to take down, hypoxyprobe (Hypoxyprobe, Inc. cat #HP3) was injected into mice. Tumor sections were stained (dark areas) for the level of hypoxia utilizing an anti-hypoxyprobe antibody and standard IHC methods (FIG. 6). The same tumors were stained for the expression of HIF regulated gene carbonic anhydrase IX (CA9) using standard IHC methods (FIG. 7).

TMD8 cells = assay: Diffuse large B-cell lymphoma (DLBCL) assay, viable cells by Guava ViaCount; type: cell-based; conditions: varying concentrations, 7 days
Method: Diffuse Large B-Cell Lymphoma (DLBCL) Assay
Equal number of TMD8 cells were plated and treated with varying concentrations of the compound of Example 7 for 7 days. Percent of viable cells was determined using Guava ViaCount reagents (EMD Millipore cat #4000-0040) that contains proprietary dyes that enable the determination of the number of live and dead cells in a sample (FIG. 1).

OCI-AML3 cell line = assay: Acute myeloid leukemia cell line viability; type: cell-based, human; conditions: OCI-AML3, various concentrations, 7 days
Method: (§1) The OCI-AML3 cell line was treated with various concentrations of the compound of Example 7 for 7 days and the percent of viable cells normalized to control cells treated with DMSO (FIG. 8). CD45+ primary AML cells from an AML patient or CD45+ normal bone marrow cells from a healthy volunteer were treated with the compound of Example 7 for 4 days and the number of viable cells and percentage of apoptotic (annexin V) were determined (FIGS. 9a and 9b). […] OCI-AML3 cells constitutively expressing luciferase were tail vein injected in NSG nude mice. 17 days after cell injection, luciferin was injected into animals and luciferase signal was measured using an IVIS imaging system to determine tumor burden and for randomization of subjects into study groups. On day 18, animals began receiving daily oral doses of vehicle or 60 mpk of the compound of Example 7 were started and continued throughout the study. On day 28, imaging was performed again to determine tumor burden (FIG. 10).

[1] = test system: OCI-AML3 cells constitutively expressing luciferase; assay: OCI-AML3 leukemia model in NSG mice (IVIS imaging, survival); type: in vivo, NSG nude mice
Method: as §1

Gli56 cells = assay: Glioblastoma cellular assay; type: cell-based; conditions: Gli56, various concentrations
Description: (§2) NB-1, Gli56, and D423 cell lines are deleted for ENO-1 (GLI56 and D423) or PGD, which renders them with reduced glycolytic capacity (Muller, F. et al., Nature, 2012, 488, 337-42).

[2] = test system: CD45+ normal bone marrow cells from a healthy volunteer; assay: Normal bone marrow cells, viable cells and annexin V; type: cell-based, human; conditions: 4 days
Method: as §1

293T-HRE-GFP-luc cells = assay: Cell-based reporter assay for IC50 determinations (HRE-luciferase, hypoxia); conditions: 6 hrs hypoxia (1% O2), luminescence
Outline: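 IC50s come from four-parameter logistic fits of luminescence. Compounds in 1:3 DMSO series were added to 293T-HRE-GFP-luc cells, 30 min normoxia preceding 6 hrs at 1% O2, 37° C; HRE-luciferase signal was then measured with Steadylite Plus reagent.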

NB-1 cells = assay: Neuroblastoma cellular assay; type: cell-based; conditions: NB-1, various concentrations
Description: as §2

HN5 xenograft = assay: HN5 head and neck xenograft with fractionated irradiation; type: in vivo, CD-1 nude mice; conditions: 60 mg/kg daily oral and/or 4 Gy irradiation for 5 days
Method: HN5 head and neck cells were injected intramuscularly into CD-1 nude mice. Upon tumors reaching 8.5 mm in diameter, animals were enrolled in the study and received either vehicle or the compound of Example 7 (days 0-5) with or without a 4 Gy dose 6 hours after the compound of Example 7 on days 1-5 of the study (FIG. 12). Tumor size was measured every other day to determine the rate of growth (FIG. 13).

D423 cells = assay: Cellular assay in ENO-1 deleted D423 cells; type: cell-based; conditions: D423, various concentrations
Description: as §2

[3] = test system: CD45+ primary AML cells from an AML patient; assay: Primary AML cells, viable cells and annexin V; type: cell-based, human; conditions: 4 days
Method: as §1

For CN1CCN(c2cc(Cn3cc(-c4nc(-c5ccc(OC(F)(F)F)cc5)no4)ccc3=O)ccn2)CC1 [Example 7, 1-methyl-4-(4-((2-oxo-5-(3-(4-(trifluoromethoxy)phenyl)-1,2,4-oxadiazol-5-yl)pyridin-1(2H)-yl)methyl)pyridin-1-ium-2-yl)piperazin-1-ium bis-trifluoroacetate], the tumor growth (NB-1 xenografts) was “reduces the tumor growth”, the tumor growth (H460 xenografts; 40 mpk qdx14 oral gavage) was “inhibited the growth of the H460 xenografts” and the “carbonic anhydrase IX (CA9) protein expression in tumor (IHC)” value (H460 xenografts; 40 mpk qdx14 oral, day 15) was “elimination of hypoxia and CA9 protein expression”. The “level of hypoxia in tumor (hypoxyprobe IHC)” value (H460 xenografts; 40 mpk qdx14 oral, day 15) was “elimination of hypoxia”, the “Percent of viable cells” value (TMD8 cells) was “respond robustly” and the “percent of viable cells normalized to DMSO control” value (OCI-AML3 cell line) was “reduced number of viable cells”. For the same compound, the “disease burden (IVIS imaging)” value ([1]; 60 mg/kg daily oral, NSG mice) was “reduces disease burden”, the survival ([1]; 60 mpk daily oral, relative to vehicle) was “significantly increased their survival” and the cell death (Gli56 cells) was “cell death readily apparent”. The cell number (Gli56 cells) was “significantly reduced”, the “response (viable cells, annexin V)” value [2] was “minimal response” and the IC50 (293T-HRE-GFP-luc cells) was less than 0.1 µM. For the same compound, the cell death (NB-1 cells) was “cell death readily apparent”, the cell number (NB-1 cells) was “significantly reduced” and the “tumor diameter, combination with irradiation” value (HN5 xenograft) was “enhance fractionated irradidation”. For the same compound, the cell number (D423 cells) was “significantly reduced”, the “number of viable cells” value [3] was “significant decrease” and the “percentage of apoptotic (annexin V) cells” value [3] was “significant increase”.
